Values of other authors in patent US9439853B2, “Form of administration of enkephalinase inhibitor” (BIOPROJET, priority 2010, dated 2016).

Settings: for ondansetron the water phase of the suspension

## CC(=O)SCC(Cc1ccccc1)C(=O)NCC(=O)OCc1ccccc1 (centres unmarked) [Racecadotril]
  solubility in water: insoluble in water

## Cc1nccn1CC1CCc2c(c3ccccc3n2C)C1=O (centres unmarked) [ondansetron]
  solubility in water: soluble in the water phase of the suspension
